This is an account of results in EP4667458A1 (Kanaph Therapeutics Inc., priority 2023, dated 2024).

Where only a bound is given, the exact number is not on record here.

The test concerns the target T1, KRAS^G12C::SOS1 (Homo sapiens, UniProt Q07889).
T1 sequence (Q07889 1-1333): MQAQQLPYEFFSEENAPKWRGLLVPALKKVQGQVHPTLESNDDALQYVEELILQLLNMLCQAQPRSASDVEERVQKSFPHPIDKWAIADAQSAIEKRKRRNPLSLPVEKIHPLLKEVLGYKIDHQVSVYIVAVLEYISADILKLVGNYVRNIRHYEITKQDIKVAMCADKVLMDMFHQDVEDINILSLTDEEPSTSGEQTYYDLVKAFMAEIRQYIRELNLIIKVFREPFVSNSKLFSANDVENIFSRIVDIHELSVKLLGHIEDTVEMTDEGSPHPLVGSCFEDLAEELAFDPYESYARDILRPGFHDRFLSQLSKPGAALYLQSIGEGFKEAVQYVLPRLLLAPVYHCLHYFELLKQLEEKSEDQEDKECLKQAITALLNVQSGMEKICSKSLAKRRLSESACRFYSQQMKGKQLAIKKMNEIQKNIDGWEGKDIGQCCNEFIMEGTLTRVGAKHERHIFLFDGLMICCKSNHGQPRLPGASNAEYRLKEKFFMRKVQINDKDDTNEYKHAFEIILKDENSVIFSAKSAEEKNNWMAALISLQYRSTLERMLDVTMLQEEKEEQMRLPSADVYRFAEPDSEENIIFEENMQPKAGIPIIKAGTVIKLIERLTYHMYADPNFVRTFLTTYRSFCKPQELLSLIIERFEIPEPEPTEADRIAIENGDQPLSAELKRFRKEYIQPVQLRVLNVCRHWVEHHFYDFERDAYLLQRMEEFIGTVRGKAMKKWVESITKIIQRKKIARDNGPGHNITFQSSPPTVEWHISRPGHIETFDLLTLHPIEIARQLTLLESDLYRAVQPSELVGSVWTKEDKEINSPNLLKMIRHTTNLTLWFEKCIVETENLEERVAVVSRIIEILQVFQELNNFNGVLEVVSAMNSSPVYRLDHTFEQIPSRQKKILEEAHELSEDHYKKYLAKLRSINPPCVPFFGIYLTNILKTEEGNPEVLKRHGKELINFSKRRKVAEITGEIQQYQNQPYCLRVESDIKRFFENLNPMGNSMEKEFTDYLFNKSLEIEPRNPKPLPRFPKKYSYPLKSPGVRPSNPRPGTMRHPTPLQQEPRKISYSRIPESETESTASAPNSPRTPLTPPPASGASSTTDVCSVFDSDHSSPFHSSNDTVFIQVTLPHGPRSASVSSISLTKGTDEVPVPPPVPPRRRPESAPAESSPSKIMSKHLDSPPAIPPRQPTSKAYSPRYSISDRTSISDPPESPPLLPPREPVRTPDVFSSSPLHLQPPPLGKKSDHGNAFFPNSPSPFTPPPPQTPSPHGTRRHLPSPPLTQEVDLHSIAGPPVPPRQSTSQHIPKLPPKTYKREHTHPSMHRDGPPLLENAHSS
Put plainly: KRAS G12C::SOS1 protein-protein interaction (PPI) inhibition assay (HTRF binding kit).
Procedure: Protein-protein interaction between SOS1 and KRAS^G12C was detected using KRAS G12C/SOS1 binding kit from CISBIO (64KRASG12PEH, CISBIO, FRANCE) according to the manufacturer's assay method. Briefly, the maximum concentration of an inhibitor sample was set to be 3 µM, and the inhibitor sample was diluted 7 times by 1/3, and samples having a total of 8 concentrations were prepared. In HTRF (Homogeneous Time-Resolved Fluorescence) exclusive 96-well low-volume white plate (66PL96005, CISBIO, FRANCE), 2 µL of an inhibitor sample prepared for each concentration, 5 µL of a mixed solution of Tag1-labeled KRAS^G12C protein and GTP diluted with the dilution solution provided by the manufacturer, and 5 µL of Tag2 labeled SOS1 protein were mixed, and added with 8 µL of a diluted solution where anti-Tag1 KRAS^G12C XL665 (HTRF acceptor) labeled antibody and anti-Tag2 SOS1 Terbium cryptate (HTRF donor) labeled antibody were mixed in an equal ratio and incubated at room temperature for 2 h.
For `COc1cccc(-n2nc(C(=O)N[C@H](C)c3cc(N)cc(C(F)(F)F)c3)ccc2=O)c1F` [Example 185, N-[(1R)-1-[3-amino-5-(trifluoromethyl)phenyl]ethyl]-1-(2-fluoro-3-methoxy-phenyl)-6-oxo-pyridazine-3-carboxamide], the IC50 – broadly, the midpoint of a concentration-inhibition curve – was under 1000 nM.
The compound `COc1cccc(-n2cc(C(=O)N[C@H](C)c3cccc(C(F)(F)CO)c3F)ccc2=O)c1F` [Example 186, N-[(1R)-1-[3-(1,1-difluoro-2-hydroxy-ethyl)-2-fluoro-phenyl]ethyl]-1-(2-fluoro-3-methoxyphenyl)-6-oxo-pyridine-3-carboxamide] returned an IC50 of under 1000 nM.
The compound `COc1cccc(-n2cc(C(=O)N[C@H](C)c3cc(N)cc(C(F)(F)F)c3)ccc2=O)c1F` [Example 187, N-[(1R)-1-[3-amino-5-(trifluoromethyl)phenyl]ethyl]-1-(2-fluoro-3-methoxy-phenyl)-6-oxo-pyridine-3-carboxamide] gave an IC50 of under 1000 nM.
Under `C[C@@H](NC(=O)c1ccc(=O)n(-c2ccccc2)n1)c1cccc(I)c1` [Example 188, (R)-N-(1-(3-iodophenyl)ethyl)-6-oxo-1-phenyl-1,6-dihydropyridazine-3-carboxamide] stands under 1000 nM; under `CCOc1ccc(-n2nc(C(=O)N[C@H](C)c3cc(N)cc(C(F)(F)F)c3)ccc2=O)cc1` [Example 189, (R)-N-(1-(3-amino-5-(trifluoromethyl)phenyl)ethyl)-1-(4-ethoxyphenyl)-6-oxo-1,6-dihydropyridazine-3-carboxamide], under 1000 nM.
As for `C[C@@H](NC(=O)c1ccc(=O)n(-c2ccccc2)n1)c1cccc(S(F)(F)(F)(F)F)c1` [Example 190, 6-oxo-N-[(1R)-1-[3-(pentafluoro-λ6-sulfanyl)phenyl]ethyl]-1-phenyl-pyridazine-3-carboxamide], the IC50 is under 1000 nM.
Then `C[C@@H](NC(=O)c1ccc(=O)n(-c2ccccc2F)n1)c1cccc(C(F)(F)C(C)(C)O)c1F` [Example 192, N-[(1R)-1-[3-(1,1-difluoro-2-hydroxy-2-methyl-propyl)-2-fluoro-phenyl]ethyl]-1-(2-fluorophenyl)-6-oxo-pyridazine-3-carboxamide], with under 1000 nM; and `COc1cc(-n2nc(C(=O)N[C@H](C)c3cccc(C(F)(F)CO)c3F)ccc2=O)ccn1` [Example 193, N-[(1R)-1-[3-(1,1-difluoro-2-hydroxy-ethyl)-2-fluoro-phenyl]ethyl]-1-(2-methoxy-4-pyridyl)-6-oxo-pyridazine-3-carboxamide], with under 1000 nM.
`C[C@@H](NC(=O)c1ccc(=O)n(-c2cccc(C(=O)N3CCCC3)c2)n1)c1cccc(C(F)(F)CO)c1F` [Example 194, N-[(1R)-1-[3-(1,1-difluoro-2-hydroxy-ethyl)-2-fluoro-phenyl]ethyl]-6-oxo-1-[3-(pyrrolidine-1-carbonyl)phenyl]pyridazine-3-carboxamide] had an IC50 of under 1000 nM.
In turn, `C[C@@H](NC(=O)c1ccc(=O)n(-c2ccc(OC(F)F)cc2)n1)c1cccc(C(F)(F)CO)c1F` [Example 195, N-[(1R)-1-[3-(1,1-difluoro-2-hydroxy-ethyl)-2-fluoro-phenyl]ethyl]-1-[4-(difluoromethoxy)phenyl]-6-oxo-pyridazine-3-carboxamide] returned an IC50 of under 1000 nM.
`COc1cc(-n2nc(C(=O)N[C@H](C)c3cc(N)cc(C(F)(F)F)c3)ccc2=O)ccn1` [Example 196, N-[(1R)-1-[3-amino-5-(trifluoromethyl)phenyl]ethyl]-1-(2-methoxy-4-pyridyl)-6-oxo-pyridazine-3-carboxamide]: the half-inhibitory concentration (IC50) was under 1000 nM.
`C[C@@H](NC(=O)c1ccc(=O)n(-c2cccc(C(=O)N3CCCC3)c2)n1)c1cc(N)cc(C(F)(F)F)c1` [Example 197, N-[(1R)-1-[3-amino-5-(trifluoromethyl)phenyl]ethyl]-6-oxo-1-[3-(pyrrolidine-1-carbonyl)phenyl]pyridazine-3-carboxamide]: the half-maximal inhibitory concentration (IC50) was under 1000 nM.
The compound `C[C@@H](NC(=O)c1ccc(=O)n(-c2ccc(OC(F)F)cc2)n1)c1cc(N)cc(C(F)(F)F)c1` [Example 198, N-[(1R)-1-[3-amino-5-(trifluoromethyl)phenyl]ethyl]-1-[4-(difluoromethoxy)phenyl]-6-oxo-pyridazine-3-carboxamide] showed an IC50 of under 1000 nM.
For `COc1ccc(-n2cc(C(=O)N[C@H](C)c3cc(N)cc(C(F)(F)F)c3)ccc2=O)cc1` [Example 199, N-[(1R)-1-[3-amino-5-(trifluoromethyl)phenyl]ethyl]-1-(4-methoxyphenyl)-6-oxo-pyridine-3-carboxamide], the half-maximal inhibitory concentration (IC50) was under 1000 nM.
Under `C[C@@H](NC(=O)c1ccc(=O)n(-c2cnn(C)c2)n1)c1cc(N)cc(C(F)(F)F)c1` [Example 200, N-[(1R)-1-[3-amino-5-(trifluoromethyl)phenyl]ethyl]-1-(1-methylpyrazol-4-yl)-6-oxo-pyridazine-3-carboxamide] stands under 1000 nM; under `CC(C)c1cccc([C@@H](C)NC(=O)c2ccc(=O)n(-c3ccccc3)n2)c1` [Example 201, N-[(1R)-1-(3-isopropylphenyl)ethyl]-6-oxo-1-phenyl-pyridazine-3-carboxamide], under 1000 nM; under `C[C@@H](NC(=O)c1ccc(=O)n(-c2ccc(OC(F)(F)F)cc2)n1)c1cccc(C(F)(F)CO)c1F` [Example 202, N-[(1R)-1-[3-(1,1-difluoro-2-hydroxy-ethyl)-2-fluoro-phenyl]ethyl]-6-oxo-1-[4-(trifluoromethoxy)phenyl]pyridazine-3-carboxamide], under 1000 nM.
Compound `COc1ccc(-n2cc(C(=O)N[C@H](C)c3cccc(C(F)(F)CO)c3F)ccc2=O)cc1` [Example 203, N-[(1R)-1-[3-(1,1-difluoro-2-hydroxy-ethyl)-2-fluoro-phenyl]ethyl]-1-(4-methoxyphenyl)-6-oxo-pyridine-3-carboxamide] yielded an IC50 of under 1000 nM.
`COCc1cccc(-n2nc(C(=O)N[C@H](C)c3cccc(C(F)(F)CO)c3F)ccc2=O)c1` [Example 204, N-[(1R)-1-[3-(1,1-difluoro-2-hydroxy-ethyl)-2-fluoro-phenyl]ethyl]-1-[3-(methoxymethyl)phenyl]-6-oxo-pyridazine-3-carboxamide] yielded an IC50 of under 1000 nM.
`COCc1cccc(-n2nc(C(=O)N[C@H](C)c3cc(N)cc(C(F)(F)F)c3)ccc2=O)c1` [Example 205, N-[(1R)-1-[3-amino-5-(trifluoromethyl)phenyl]ethyl]-1-[3-(methoxymethyl)phenyl]-6-oxo-pyridazine-3-carboxamide]: the IC50 was under 1000 nM.
On to `COc1ccc(-n2nc(C(=O)N[C@H](C)c3cccc(C(F)(F)CO)c3F)ccc2=O)cc1C(=O)N(C)C` [Example 206, N-[(1R)-1-[3-(1,1-difluoro-2-hydroxy-ethyl)-2-fluoro-phenyl]ethyl]-1-[3-(dimethylcarbamoyl)-4-methoxy-phenyl]-6-oxo-pyridazine-3-carboxamide], for which the IC50 is under 1000 nM.
Then `COc1ccc(-n2nc(C(=O)N[C@H](C)c3cc(N)cc(C(F)(F)F)c3)ccc2=O)cc1C(=O)N(C)C` [Example 207, N-[(1R)-1-[3-amino-5-(trifluoromethyl)phenyl]ethyl]-1-[3-(dimethylcarbamoyl)-4-methoxy-phenyl]-6-oxo-pyridazine-3-carboxamide], with under 1000 nM; and `C[C@@H](NC(=O)c1ccc(=O)n(-c2ccc3c(c2)COC3)n1)c1cc(N)cc(C(F)(F)F)c1` [Example 208, N-[(1R)-1-[3-amino-5-(trifluoromethyl)phenyl]ethyl]-1-(1,3-dihydroisobenzofuran-5-yl)-6-oxo-pyridazine-3-carboxamide], with under 1000 nM; and `C[C@@H](NC(=O)c1ccc(=O)n(-c2cnn(C)c2Cl)n1)c1cc(N)cc(C(F)(F)F)c1` [Example 209, N-[(1R)-1-[3-amino-5-(trifluoromethyl)phenyl]ethyl]-1-(5-chloro-1-methyl-pyrazol-4-yl)-6-oxo-pyridazine-3-carboxamide], with under 1000 nM.
As to `C[C@@H](NC(=O)c1nn(-c2ccccc2F)c(=O)cc1Nc1ccccc1)c1cc(N)cc(C(F)(F)F)c1` [Example 210, N-[(1R)-1-[3-amino-5-(trifluoromethyl)phenyl]ethyl]-4-anilino-1-(2-fluorophenyl)-6-oxo-pyridazine-3-carboxamide], the concentration for half-maximal inhibition (IC50) was under 1000 nM.
